Data on one compound can be found in ChEMBL document CHEMBL4219026, “A Cereblon Modulator (CC-220) with Improved Degradation of Ikaros and Aiolos” (J Med Chem, 2018).

The target of assay [1] is Cereblon/Casein kinase I alpha (Homo sapiens) (UniProt P48729+Q96SW2). In words: Induction of cereblon-mediated CK1alpha (unknown origin) degradation in at 0.0005 to 10 uM after 4 hrs by cell-based chemiluminescent assay.
The target in assay [2] is Protein cereblon/Eukaryotic peptide chain release factor GTP-binding subunit ERF3A (Homo sapiens) (UniProt Q96SW2+P15170). Nature of the assay: Induction of cereblon-mediated GSPT1 degradation in human DF15 cells expressing ePL-tagged GSPT1 at 0.0005 to 10 uM after 4 hrs by luminometric analysis. Type of assay: cell-based.

Activity calls are given as the source filed them. The calls are words filed in the database; no cut-off is given here.

Cereblon/Casein kinase I alpha (Homo sapiens), sequence (P48729 2-337 limits assumed): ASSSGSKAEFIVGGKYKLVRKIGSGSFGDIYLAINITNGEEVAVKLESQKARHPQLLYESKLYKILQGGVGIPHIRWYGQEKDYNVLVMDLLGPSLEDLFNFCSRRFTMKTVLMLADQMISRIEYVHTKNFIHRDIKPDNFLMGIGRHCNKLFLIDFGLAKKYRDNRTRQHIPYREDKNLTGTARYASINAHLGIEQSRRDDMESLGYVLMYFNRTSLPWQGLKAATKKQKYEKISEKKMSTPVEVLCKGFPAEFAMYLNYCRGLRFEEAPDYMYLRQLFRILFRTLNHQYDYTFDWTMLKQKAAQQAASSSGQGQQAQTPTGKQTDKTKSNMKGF
Cereblon/Casein kinase I alpha (Homo sapiens), sequence (Q96SW2 whole entry partner): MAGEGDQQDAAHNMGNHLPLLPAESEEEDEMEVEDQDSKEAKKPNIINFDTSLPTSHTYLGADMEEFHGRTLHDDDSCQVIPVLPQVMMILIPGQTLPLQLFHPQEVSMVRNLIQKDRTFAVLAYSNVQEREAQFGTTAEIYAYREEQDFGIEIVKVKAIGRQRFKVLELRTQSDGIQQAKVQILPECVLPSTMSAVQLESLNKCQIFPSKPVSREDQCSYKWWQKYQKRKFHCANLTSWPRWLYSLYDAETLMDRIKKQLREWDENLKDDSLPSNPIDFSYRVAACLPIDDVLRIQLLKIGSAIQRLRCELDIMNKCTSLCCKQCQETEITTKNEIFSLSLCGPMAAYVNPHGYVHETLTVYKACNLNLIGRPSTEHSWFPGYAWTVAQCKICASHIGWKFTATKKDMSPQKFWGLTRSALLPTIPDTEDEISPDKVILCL
Protein cereblon/Eukaryotic peptide chain release factor GTP-binding subunit ERF3A (Homo sapiens), sequence (P15170 whole entry, looked up): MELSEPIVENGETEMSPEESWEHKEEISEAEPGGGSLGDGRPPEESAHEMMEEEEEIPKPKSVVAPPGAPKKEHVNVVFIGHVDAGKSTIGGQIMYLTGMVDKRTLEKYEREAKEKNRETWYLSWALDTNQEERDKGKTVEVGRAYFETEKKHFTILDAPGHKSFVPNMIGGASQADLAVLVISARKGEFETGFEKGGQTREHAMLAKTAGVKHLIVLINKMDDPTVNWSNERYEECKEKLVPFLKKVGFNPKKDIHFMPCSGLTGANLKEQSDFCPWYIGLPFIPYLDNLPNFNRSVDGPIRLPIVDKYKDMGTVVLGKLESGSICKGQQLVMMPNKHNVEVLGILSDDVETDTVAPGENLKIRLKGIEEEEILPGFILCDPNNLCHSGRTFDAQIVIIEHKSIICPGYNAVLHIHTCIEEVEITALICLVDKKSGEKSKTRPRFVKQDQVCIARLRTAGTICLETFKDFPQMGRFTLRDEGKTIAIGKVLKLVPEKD
Protein cereblon/Eukaryotic peptide chain release factor GTP-binding subunit ERF3A (Homo sapiens), sequence (Q96SW2 whole entry, looked up): as the sequence (Q96SW2 whole entry partner) above

In the case of `O=C1CC[C@H](N2Cc3c(OCc4ccc(CN5CCOCC5)cc4)cccc3C2=O)C(=O)N1`, the outcome in assay [1] and in assay [2] was inactive.
